The values that follow come from PubChem BioAssay (NCI).

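Cultured in 96-well plates, cells were exposed to test compound for 48 hours across five concentrations. TGI marks complete inhibition of growth.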

A word on the TGI: it is the concentration at which net growth stops. A higher TGI goes with less potent growth arrest.

Test systems include M14 melanoma; HCT-15 colon; HS 578T breast; SK-MEL-5 melanoma; NCI-H522 lung; MDA-MB-231 breast; NCI/ADR-RES ovarian; CAKI-1 renal.
Experiment in all cases: DTP human tumour cell line panel, 48 h

As to `O=C1/C(=C/c2ccccc2)CCC/C1=C\c1ccc(O)c(CN2CCCCC2)c1`, the concentration for total growth inhibition (TGI) with M14 melanoma was determined as 26.1 µM; in the experiment on HCT-15 colon, 3.74 µM; in the experiment on HS 578T breast, 15.1 µM; in the experiment on SK-MEL-5 melanoma it was 9.62 µM; in the experiment on NCI-H522 lung, 7.22 µM; in the experiment with MDA-MB-231 breast it was 6.28 µM. Moreover, the TGI in the experiment with NCI/ADR-RES ovarian is 8.44 µM; in the experiment on CAKI-1 renal, 18.8 µM.

Regarding `NC(=O)NC(=O)c1cccc(NC(=O)CF)c1`, the concentration for total growth inhibition (TGI) with M14 melanoma, with HCT-15 colon, in the experiment with HS 578T breast, with SK-MEL-5 melanoma, with NCI-H522 lung and in the experiment on MDA-MB-231 breast was > 100 µM in each case. In addition, the TGI in the experiment on NCI/ADR-RES ovarian and in the experiment with CAKI-1 renal was > 100 µM in each case.

As to `O=C1/C(=C/c2c(Cl)[nH]c3ccccc23)c2ccccc2N1c1ccccc1`, the TGI worked out at 13 µM in the experiment on M14 melanoma; 15 µM with HCT-15 colon; 30.2 µM in the experiment with HS 578T breast; 10.7 µM in the experiment with NCI-H522 lung; 29.6 µM with MDA-MB-231 breast; 6.55 µM in the experiment on NCI/ADR-RES ovarian. In the experiment with CAKI-1 renal, the TGI is > 100 µM.

As for `c1ccc(C2OCC(OC3CCCCO3)CO2)cc1` (centres undefined), the TGI in the experiment on M14 melanoma, in the experiment on HCT-15 colon, in the experiment on HS 578T breast, in the experiment on SK-MEL-5 melanoma, with NCI-H522 lung and with MDA-MB-231 breast was > 100 µM in each case. The TGI with NCI/ADR-RES ovarian and in the experiment with CAKI-1 renal was > 100 µM each time.

Consider `O=c1[nH]c(-c2ccccc2)nc2c1sc1nc3ccccc3n12`, for which the TGI was > 100 µM in the experiment with M14 melanoma; > 100 µM in the experiment with HCT-15 colon; 82.5 µM in the experiment on HS 578T breast; > 100 µM in the experiment with SK-MEL-5 melanoma; > 100 µM with NCI-H522 lung; > 100 µM in the experiment on MDA-MB-231 breast. The TGI in the experiment on NCI/ADR-RES ovarian and in the experiment on CAKI-1 renal was > 100 µM each time.

Take `O=c1oc2c(ccc3ccccc32)cc1C1=CSC2=NCCN12`: the TGI with M14 melanoma, in the experiment with HCT-15 colon, with HS 578T breast, in the experiment with SK-MEL-5 melanoma, with NCI-H522 lung and in the experiment on MDA-MB-231 breast was > 100 µM in each case. The TGI with NCI/ADR-RES ovarian and in the experiment with CAKI-1 renal was > 100 µM each time.

Consider `Cc1ccc(S(=O)(=O)Nn2c(S)c(C#N)c(-c3ccc([N+](=O)[O-])cc3)c(C#N)c2=O)cc1`, for which the TGI with M14 melanoma is > 100 µM; in the experiment with HCT-15 colon it was 49.7 µM; in the experiment with HS 578T breast, 86.5 µM; with SK-MEL-5 melanoma it was 29.5 µM; in the experiment on NCI-H522 lung it was 30.2 µM; in the experiment with MDA-MB-231 breast, 36.5 µM. Also, the TGI in the experiment on NCI/ADR-RES ovarian and with CAKI-1 renal was > 100 µM each time.

`CCCCOCCOC1=CC(=O)c2c(O)ccc(O)c2C1=O`: the TGI was found to be 2.18 µM in the experiment on M14 melanoma; 4.99 µM with HS 578T breast; 0.422 µM in the experiment on SK-MEL-5 melanoma; 2.93 µM in the experiment on NCI-H522 lung; 3.85 µM with MDA-MB-231 breast; 4.74 µM in the experiment on NCI/ADR-RES ovarian. In the experiment with CAKI-1 renal, this molecule came in with a TGI of 3.23 µM.

Take `O=C1C(=C(I)I)c2ccccc2-c2ccccc21`: the TGI came to 9.15 µM in the experiment with M14 melanoma; 8.51 µM in the experiment with HCT-15 colon; 19.6 µM in the experiment with HS 578T breast; 19.7 µM in the experiment on SK-MEL-5 melanoma; 2.61 µM with NCI-H522 lung; 4.31 µM in the experiment with MDA-MB-231 breast. Also, the TGI in the experiment with NCI/ADR-RES ovarian is 12.2 µM; with CAKI-1 renal, 7.12 µM.

In the case of `Cn1cnc(N2CCCC2)c(C#N)c1=O`, the TGI in the experiment on M14 melanoma, in the experiment with HCT-15 colon, with HS 578T breast, in the experiment with SK-MEL-5 melanoma, in the experiment with NCI-H522 lung and in the experiment with MDA-MB-231 breast was > 100 µM throughout. Moreover, the TGI in the experiment on NCI/ADR-RES ovarian and in the experiment on CAKI-1 renal was > 100 µM throughout.

Turning to `CCOC(=O)C1(C/C=C\CBr)CCCCCCCCCCC1=O` (centres undefined), the TGI with M14 melanoma was 55 µM; in the experiment on HCT-15 colon it was 32.8 µM; in the experiment with HS 578T breast it was 43.2 µM; with SK-MEL-5 melanoma it was 26.5 µM; with NCI-H522 lung, 1.04 µM; with MDA-MB-231 breast, 17.8 µM. The results for the TGI in the experiment on NCI/ADR-RES ovarian and in the experiment with CAKI-1 renal were 39.2 µM and 27.2 µM, respectively.

Consider `O=C(CCCN1CCC2(CC1)CC(=O)N(N1CCCCCC1)C2=O)c1ccc(F)cc1`, for which the TGI with M14 melanoma, in the experiment on HCT-15 colon, in the experiment on HS 578T breast, with SK-MEL-5 melanoma, in the experiment with NCI-H522 lung and in the experiment with MDA-MB-231 breast was > 100 µM each time. Besides, the TGI in the experiment on NCI/ADR-RES ovarian was 37.3 µM; with CAKI-1 renal, > 100 µM.

On to `NC(CCC(=O)O)(CCC(=O)O)CCC(=O)O`, for which the TGI with M14 melanoma, in the experiment with HCT-15 colon, in the experiment with HS 578T breast, in the experiment with SK-MEL-5 melanoma, with NCI-H522 lung and with MDA-MB-231 breast was > 100 µM each time. The TGI in the experiment with NCI/ADR-RES ovarian and with CAKI-1 renal was > 100 µM throughout.

As for `CC(C)(C)OC(=O)N(CCNS(=O)(=O)c1cccc2cnccc12)CCC(=O)ON1C(=O)CCC1=O`, the TGI in the experiment on M14 melanoma, in the experiment on HCT-15 colon, with HS 578T breast, with SK-MEL-5 melanoma, in the experiment on NCI-H522 lung and with MDA-MB-231 breast was > 100 µM each time. Also, the TGI in the experiment with NCI/ADR-RES ovarian is > 100 µM.
